{
  "source": "patent EP0286825A2",
  "about": "“Use of 3'-fluro-3' deoxythymidine for the manufacture of a medicament for the treatment of virus infections” (Max-Planck-Gesellschaft zur Förderung der Wissenschaften …, priority 1987, dated 1988)",
  "key": {"MT₄-cells": {"test_system": "MT₄-cells", "experiment": "Toxicity to MT4 cells in the absence of HIV, incorporation of thymidine", "conditions": "MT₄ cells without HIV, Fig. 5, compared with the other compounds"}, "HIV [1]": {"test_system": "HIV", "experiment": "microbe, parasite or virus in culture", "format": "cell-based", "conditions": "for EC50: Human immunodeficiency virus 1, MT4, read-out: concentration of active material that protects the cells with half maximum action against the pathogenic effect of HIV"}, "HIV [2]": {"test_system": "HIV", "format": "cell-based"}, "HIV [3]": {"test_system": "HIV", "format": "cell-based", "remark": "listed apart in the source"}, "[4]": {"test_system": "peripheral blood lymphocytes", "experiment": "Viability and cell number of the PHA stimulated peripheral blood lymphocytes", "conditions": "counts from thymidine incorporation"}},
  "note": "Read-outs that look alike come from different tables or passages of the source.",
  "data": [
    {"smiles": "[N-]=[N+]=N[C@H]1C[C@H](n2cnc3c(O)ncnc32)O[C@@H]1CO", "note": "[3ʹ-azido-2ʹ,3ʹ-dideoxyinosine]", "values": [
      {"measurement": "Toxicity", "setting": "MT₄-cells", "value": "higher"},
      {"measurement": "rate of thymidine incorporation in the HIV infected cell line", "setting": "HIV [1]; Fig. 5", "value": "nearly equalled that of non-infected T₄ cell lines"}
    ]},
    {"smiles": "Cc1cn([C@H]2C[C@H](F)[C@@H](CO)O2)c(=O)[nH]c1=O", "values": [
      {"measurement": "EC50", "setting": "HIV [1]", "value": "< 0.002", "unit": "µg/mL"}
    ]},
    {"smiles": "Nc1nc2c(ncn2[C@H]2C[C@H](F)[C@@H](CO)O2)c(=O)[nH]1", "note": "[3ʹ-fluoro-2ʹ,3ʹ-dideoxyguanosine]", "values": [
      {"measurement": "EC50", "setting": "HIV [1]; MT₄-cells, 1:40 dilution of the HIV parent liquid, thymidine incorporation", "value": "< 1.5", "unit": "µg/mL"},
      {"measurement": "in vitro therapeutic index", "setting": "HIV [1]; toxic concentration compared with antiviral concentration, MT₄ human cell line", "value": "approximately 400"}
    ]},
    {"smiles": "Cc1cn([C@H]2C[C@H](N=[N+]=[N-])[C@@H](CO)O2)c(=O)[nH]c1=O", "note": "[AZT, azido-thymidine]", "values": [
      {"measurement": "CPM/1+06 CELLS", "setting": "HIV [2]; AZT 0.01UM, day 7", "value": "1.78E+03", "unit": "CPM/1+06 CELLS"},
      {"measurement": "CPM/ml", "setting": "HIV [2]; AZT 0.01UM, day 7", "value": "5.9E+03", "unit": "CPM/ml"},
      {"measurement": "CPM/1+06 CELLS", "setting": "HIV [2]; AZT 0.01UM, day 11", "value": "7.19E+03", "unit": "CPM/1+06 CELLS"},
      {"measurement": "CPM/ml", "setting": "HIV [2]; AZT 0.01UM, day 11", "value": "2.8E+04", "unit": "CPM/ml"},
      {"measurement": "CPM/1+06 CELLS", "setting": "HIV [2]; AZT 0.01UM, day 14", "value": "2.41E+04", "unit": "CPM/1+06 CELLS"},
      {"measurement": "CPM/ml", "setting": "HIV [2]; AZT 0.01UM, day 14", "value": "1.4E+05", "unit": "CPM/ml"},
      {"measurement": "CPM/1+06 CELLS", "setting": "HIV [2]; AZT 0.1UM, day 7", "value": "8.64E+01", "unit": "CPM/1+06 CELLS"},
      {"measurement": "CPM/ml", "setting": "HIV [2]; AZT 0.1UM, day 7", "value": "3.5E+02", "unit": "CPM/ml"},
      {"measurement": "CPM/1+06 CELLS", "setting": "HIV [2]; AZT 0.1UM, day 11", "value": "2.49E+02", "unit": "CPM/1+06 CELLS"},
      {"measurement": "CPM/ml", "setting": "HIV [2]; AZT 0.1UM, day 11", "value": "1.2E+03", "unit": "CPM/ml"},
      {"measurement": "CPM/1+06 CELLS", "setting": "HIV [2]; AZT 0.1UM, day 14", "value": "9.78E+02", "unit": "CPM/1+06 CELLS"},
      {"measurement": "CPM/ml", "setting": "HIV [2]; AZT 0.1UM, day 14", "value": "3.9E+03", "unit": "CPM/ml"},
      {"measurement": "CPM/1+06 CELLS", "setting": "HIV [2]; AZT 1UM, day 7", "value": "7.66E+02", "unit": "CPM/1+06 CELLS"},
      {"measurement": "CPM/ml", "setting": "HIV [2]; AZT 1UM, day 7", "value": "2.9E+03", "unit": "CPM/ml"},
      {"measurement": "CPM/ml", "setting": "HIV [2]; AZT 1UM, day 11", "value": "-8.1E+03", "unit": "CPM/ml"},
      {"measurement": "CPM/1+06 CELLS", "setting": "HIV [2]; AZT 1UM, day 14", "value": "1.55E+02", "unit": "CPM/1+06 CELLS"},
      {"measurement": "CPM/ml", "setting": "HIV [2]; AZT 1UM, day 14", "value": "5.7E+02", "unit": "CPM/ml"},
      {"measurement": "%B/Bo", "setting": "HIV [3]; AZT 0.01 uM, day 4", "value": 54.2, "unit": "%"},
      {"measurement": "ng p24/ml", "setting": "HIV [3]; AZT 0.01 uM, day 4", "value": 3.6, "unit": "ng p24/ml"},
      {"measurement": "%B/Bo", "setting": "HIV [3]; AZT 0.01 uM, day 7", "value": 62.3, "unit": "%"},
      {"measurement": "ng p24/ml", "setting": "HIV [3]; AZT 0.01 uM, day 7", "value": 2.7, "unit": "ng p24/ml"},
      {"measurement": "%B/Bo", "setting": "HIV [3]; AZT 0.01 uM, day 11", "value": 12.0, "unit": "%"},
      {"measurement": "ng p24/ml", "setting": "HIV [3]; AZT 0.01 uM, day 11", "value": 20, "unit": "ng p24/ml"},
      {"measurement": "%B/Bo", "setting": "HIV [3]; AZT 0.01 uM, day 14", "value": 6.2, "unit": "%"},
      {"measurement": "ng p24/ml", "setting": "HIV [3]; AZT 0.01 uM, day 14", "value": 20, "unit": "ng p24/ml"},
      {"measurement": "%B/Bo", "setting": "HIV [3]; AZT 0.1 uM, day 4", "value": 53.0, "unit": "%"},
      {"measurement": "ng p24/ml", "setting": "HIV [3]; AZT 0.1 uM, day 4", "value": 3.7, "unit": "ng p24/ml"},
      {"measurement": "%B/Bo", "setting": "HIV [3]; AZT 0.1 uM, day 7", "value": 75.2, "unit": "%"},
      {"measurement": "ng p24/ml", "setting": "HIV [3]; AZT 0.1 uM, day 7", "value": 1.6, "unit": "ng p24/ml"},
      {"measurement": "%B/Bo", "setting": "HIV [3]; AZT 0.1 uM, day 11", "value": 78.6, "unit": "%"},
      {"measurement": "ng p24/ml", "setting": "HIV [3]; AZT 0.1 uM, day 11", "value": 1.3, "unit": "ng p24/ml"},
      {"measurement": "%B/Bo", "setting": "HIV [3]; AZT 0.1 uM, day 14", "value": 67.1, "unit": "%"},
      {"measurement": "ng p24/ml", "setting": "HIV [3]; AZT 0.1 uM, day 14", "value": 2.3, "unit": "ng p24/ml"},
      {"measurement": "%B/Bo", "setting": "HIV [3]; AZT 1 uM, day 4", "value": 53.1, "unit": "%"},
      {"measurement": "ng p24/ml", "setting": "HIV [3]; AZT 1 uM, day 4", "value": 3.7, "unit": "ng p24/ml"},
      {"measurement": "%B/Bo", "setting": "HIV [3]; AZT 1 uM, day 7", "value": 68.2, "unit": "%"},
      {"measurement": "ng p24/ml", "setting": "HIV [3]; AZT 1 uM, day 7", "value": 2.2, "unit": "ng p24/ml"},
      {"measurement": "%B/Bo", "setting": "HIV [3]; AZT 1 uM, day 11", "value": 79.8, "unit": "%"},
      {"measurement": "ng p24/ml", "setting": "HIV [3]; AZT 1 uM, day 11", "value": 1.25, "unit": "ng p24/ml"},
      {"measurement": "%B/Bo", "setting": "HIV [3]; AZT 1 uM, day 14", "value": 84.4, "unit": "%"},
      {"measurement": "ng p24/ml", "setting": "HIV [3]; AZT 1 uM, day 14", "value": 0.94, "unit": "ng p24/ml"},
      {"measurement": "toxicity against the PBL", "setting": "[4]", "value": "do not show toxicity"}
    ]}
  ]
}
